Data from US20070185095A1, “Fused heterocyclic compounds and their use as metabotropic glutamate receptor antagonists” (AstraZeneca AB, priority 2004, published 2007).
pIC50: −log10 of the molar value.

Molecular target: T1, human mGluR5d (Homo sapiens, UniProt P41594)
T1 construct: expressed in transfected cells
Assay: FLIPR assay of [Ca2+]i mobilization in cells expressing human mGluR5d (Group I receptor antagonist activity)
Format: cell-based
Details: antagonist block of agonist challenge
Source text: The pharmacological properties of the compounds of the invention can be analyzed using standard assays for functional activity. Examples of glutamate receptor assays are well known in the art as described in for example Aramori et al., Neuron 8:757 (1992), Tanabe et al., Neuron 8:169 (1992), Miller et al., J. Neuroscience 15: 6103 (1995), Balazs, et al., J. Neurochemistry 69:151 (1997). The methodology described in these publications is incorporated herein by reference. Conveniently, the compounds of the invention can be studied by means of an assay that measures the mobilization of intracellular calcium, [Ca^2+]i in cells expressing mGluR5. […]
FLIPR experiments were done using a laser setting of 0.800 W and a 0.4 second CCD camera shutter speed. […] After each addition of the compound, the fluorescence signal was sampled 50 times at 1 second intervals followed by 3 samples at 5 second intervals. Responses were measured as the peak height of the response within the sample period. […]
For FLIPR analysis, cells expressing human mGluR5d as described in WO97/05252 were seeded on collagen coated clear bottom 96-well plates with black sides and analysis of [Ca^2+]i mobilization was performed 24 h following seeding. […] After each addition the fluorescence signal was sampled 50 times at 1 second intervals followed by 3 samples at 5 second intervals. […]

T1 sequence (P41594 21-942 isoform P41594-3 limits assumed): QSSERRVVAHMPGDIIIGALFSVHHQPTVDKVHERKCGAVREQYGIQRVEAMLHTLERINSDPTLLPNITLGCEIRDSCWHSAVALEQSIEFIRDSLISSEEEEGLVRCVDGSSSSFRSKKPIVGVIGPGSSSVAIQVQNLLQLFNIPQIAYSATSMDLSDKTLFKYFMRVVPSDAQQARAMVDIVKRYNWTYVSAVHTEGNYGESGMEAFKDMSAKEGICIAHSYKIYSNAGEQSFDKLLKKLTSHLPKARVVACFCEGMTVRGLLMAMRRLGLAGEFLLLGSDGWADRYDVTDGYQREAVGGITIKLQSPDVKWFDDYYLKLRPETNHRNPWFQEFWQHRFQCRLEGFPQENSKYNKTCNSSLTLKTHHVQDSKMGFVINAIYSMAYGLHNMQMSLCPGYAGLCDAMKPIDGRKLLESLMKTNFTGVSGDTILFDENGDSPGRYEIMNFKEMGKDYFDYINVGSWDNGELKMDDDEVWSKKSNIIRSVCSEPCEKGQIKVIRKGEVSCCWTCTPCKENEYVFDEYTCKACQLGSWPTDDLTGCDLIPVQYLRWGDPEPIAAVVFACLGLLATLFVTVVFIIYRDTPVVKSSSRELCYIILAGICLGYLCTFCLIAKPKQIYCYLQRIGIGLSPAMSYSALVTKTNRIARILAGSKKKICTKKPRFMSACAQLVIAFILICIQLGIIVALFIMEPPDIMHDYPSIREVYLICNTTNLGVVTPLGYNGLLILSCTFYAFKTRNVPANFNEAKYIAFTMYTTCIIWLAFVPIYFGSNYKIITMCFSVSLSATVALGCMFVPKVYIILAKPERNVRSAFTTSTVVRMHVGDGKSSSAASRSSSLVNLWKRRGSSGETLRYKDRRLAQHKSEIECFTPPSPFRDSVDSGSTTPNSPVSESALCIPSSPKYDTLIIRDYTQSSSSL

Row | Structure (SMILES) | pIC50
1 | Clc1cccc(-c2nc(CC3CCn4c(-c5ccncc5)nnc43)no2)c1 (centres unmarked) [7-{[5-(3-chlorophenyl)-1,2,4-oxadiazol-3-yl]methyl}-3-pyridin-4-yl-6,7-dihydro-5H-pyrrolo[2,1-c][1,2,4]triazole] | 7.31
2 | CC(c1noc(-c2cccc(Cl)c2)n1)N1CCCCn2c(-c3ccncc3)nnc21 (centres unmarked) [9-{1-[5-(3-chlorophenyl)-1,2,4-oxadiazol-3-yl]ethyl}-3-pyridin-4-yl-6,7,8,9-tetrahydro-5H-[1,2,4]triazolo[4,3-a][1,3]diazepine] | 7.09
